Reference: patent US20200223826A1, “Glucose-6-Phosphate Dehydrogenase (G6PD)-Modulating Agents And Methods Of Treating G6PD Deficiency” (The Board of Trustees of the Leland Stanford Junior …, priority 2017, published 2020)

Tests used:
[1] = target: glyceraldehyde 3-phosphate dehydrogenase (GAPDH) (Homo sapiens, UniProt P04406); assay: Selectivity: dimerization or activity of other NAD/NADP+-dependent enzymes; format: biochemical
human erythrocytes [2] = assay: Erythrocyte refrigerated storage assay, protein leakage; format: cell-based; settings: AG1 1 μM
Description: (§1) De-identified blood samples were obtained from the Stanford Blood Center. Erythrocytes were collected by filtering the samples through a cellulose slurry to remove platelets and leukocytes and then washed with saline. G6PD activity was measured (Beutler E. Red cell metabolism: A manual of biochemical methods (3rd edition). Grune & Stratton (1984)). […] A 5% erythrocyte suspension was pre-incubated with 1-5 μM AG1 at 4° C. overnight, which was followed by treatment with (or without) either 1 mM chloroquine (CQ) or 1 mM diamide for 3-4 hours at 37° C. (for hemolysis assay with chloroquine, the mixture was incubated under light). Then centrifugation at 1,000 rpm for 5 minutes was followed. Hemoglobin release in the supernatant was monitored by measuring absorbance at 540 nm. […] After wash, the samples were lysed with 0.1% Triton X-100 (final concentration), and the florescence was analyzed with excitation/emission at 485/525 nm. GSH measurement was determined using a Cayman glutathione assay kit (Cayman Chemicals, 703002). […] The absorbance was read at 412 nm. For storage assay, a 5% erythrocyte suspension was stored at 4° C. with and without 1 μM AG1, and hemolysis and G6PD activity were monitored every week for 28 days to examine whether AG1 improves preservation of erythrocytes over time. Protein leakage was also examined by measuring the absorbance of the supernatant of samples at 280 nm. […]

[3] = test system: lymphocytes carrying the Canton variant; assay: Cellular ROS measurement in lymphocytes; format: cell-based, human; settings: treatment with AG1 for 24 hours
Description: Cells in a 96-well plate were incubated with chloromethyl-2′,7′-dichlorodihydrofluorescein diacetate (CM-H2DCFDA) at a final concentration of 5 μM in HBSS (Hank's balanced salt solution) for 30 minutes at 37° C. After wash, cells were treated with Hoechst 33342 (1:10,000 dilution, Molecular Probes) to stain nuclei and incubated for another 10 minutes at 37° C. Cells were washed in HBSS, and the florescence was analyzed with excitation/emission at 485/525 nm. Cells were subjected to serum starvation (50-75%) for 48 hours to induce oxidative stress and treated with the compound for 24 hours before measurement. The signal was normalized to nuclei staining (excitation/emission at 350/470 nm).

human erythrocytes [4] = assay: ROS levels in erythrocytes under oxidative stressors; format: cell-based; settings: drug-induced oxidative stress
Description: as §1

[5] = test system: lymphocytes carrying the Canton variant; assay: Viability of lymphocytes; format: cell-based, human; settings: treatment with AG1 for 24 hours
Description: Cell viability was measured using a Cell-Counting Kit-8 (CCK-8, Dojindo), utilizing WST-8 [2-(2-methoxy-4-nitrophenyl)-3-(4-nitrophenyl)-5-(2,4-disulfophenyl)-2H-tetrazolium monosodium salt, according to the manufacturer's instructions. Cells were subjected to serum starvation for 48 hours before measurement. Cells in 100 μL of medium per well were treated with 10 μL of CCK-8 solution and incubated for 2 hours at 37° C. The absorbance was read at 450 nm. Viability of lymphocytes was measured by staining with a 0.4% solution of trypan blue in buffered isotonic salt solution (pH 7.2). The viability was calculated as the number of viable cells (non-stained by the dye) divided by the total number of cells within the grids on the hemacytometer. Cells were treated with 1 μM of the compound 24 hours before the measurement.

[6] = target: T1, G6PD in human erythrocytes (Homo sapiens, UniProt P11413); assay: Erythrocyte refrigerated storage assay, G6PD activity; format: cell-based; settings: AG1 1 μM
T1 construct: host or cells: human erythrocytes
T1 sequence (P11413 2-515 limits assumed): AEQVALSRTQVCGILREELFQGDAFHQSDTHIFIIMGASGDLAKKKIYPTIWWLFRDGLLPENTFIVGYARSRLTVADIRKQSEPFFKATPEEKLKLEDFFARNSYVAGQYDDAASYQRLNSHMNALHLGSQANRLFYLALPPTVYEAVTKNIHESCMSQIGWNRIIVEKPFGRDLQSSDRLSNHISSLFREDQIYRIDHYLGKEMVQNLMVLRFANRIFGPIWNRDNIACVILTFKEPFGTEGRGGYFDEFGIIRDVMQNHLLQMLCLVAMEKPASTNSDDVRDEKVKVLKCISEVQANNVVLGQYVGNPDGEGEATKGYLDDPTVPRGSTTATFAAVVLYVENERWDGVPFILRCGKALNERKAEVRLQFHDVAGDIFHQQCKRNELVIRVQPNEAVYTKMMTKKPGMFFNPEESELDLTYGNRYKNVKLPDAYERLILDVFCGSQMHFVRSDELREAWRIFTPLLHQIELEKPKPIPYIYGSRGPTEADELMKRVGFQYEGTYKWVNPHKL
Description: as §1

human erythrocytes [7] = assay: Erythrocyte refrigerated storage assay, hemolysis; format: cell-based; settings: 672 h, read-out: reduction of hemolysis
Description: as §1

[8] = target: T2, G6PD in lysate of human fibroblasts with the Mediterranean variant (Homo sapiens, UniProt P11413, S188F); assay: G6PD activity in fibroblast lysate; format: cell-based
T2 construct: host or cells: subject-derived fibroblast cell line
T2 sequence (P11413 2-515 S188F limits assumed): as the sequence (P11413 2-515 limits assumed) above, with S187F counted along it
Description: Lymphocytes derived from a normal subject (HG 00866) and a G6PD-deficient subject carrying Canton variant in G6PD (HG 02367) were purchased from Coriell Institute and cultured in RPMI 1640 supplemented with 15% fetal bovine serum (FBS), 100 U/ml penicillin, and 100 μg/ml streptomycin. An SH-SY5Y neuroblastoma cell line was cultured in Dulbecco's Modification of Eagle's Medium/Ham's F-12 50/50 Mix supplemented with 10% FBS, 100 U/ml penicillin, and 100 μg/ml streptomycin. A G6PD-deficient subject-derived fibroblast cell line carrying Mediterranean variant and normal fibroblast cell line as control were purchased from Coriell Institute (GM 01152) and ThermoFisher Scientific (C0135C), respectively, and cultured in minimum essential medium supplemented with 15% FBS, 100 U/ml penicillin, and 100 μg/ml streptomycin. All the cell lines were maintained at 37° C. in a humidified incubator with an atmosphere of 5% of CO2 and 95% air.
Enzyme activity was measured by monitoring NADPH production, which was coupled with diaphorase converting resazurin to fluorescent resorufin (excitation at 565 nm and emission at 590 nm); fluorescent signal was thus proportional to G6PD activity. Assays were performed at 25° C. and run for 5 minutes in buffer containing 50 mM Tris (pH 7.4), 0.5 mM EDTA, 3.3 mM MgCl2, 1 U/ml diaphorase, 0.1 mM resazurin. […]

Sequence of glyceraldehyde 3-phosphate dehydrogenase (GAPDH) (P04406 whole entry, species assumed): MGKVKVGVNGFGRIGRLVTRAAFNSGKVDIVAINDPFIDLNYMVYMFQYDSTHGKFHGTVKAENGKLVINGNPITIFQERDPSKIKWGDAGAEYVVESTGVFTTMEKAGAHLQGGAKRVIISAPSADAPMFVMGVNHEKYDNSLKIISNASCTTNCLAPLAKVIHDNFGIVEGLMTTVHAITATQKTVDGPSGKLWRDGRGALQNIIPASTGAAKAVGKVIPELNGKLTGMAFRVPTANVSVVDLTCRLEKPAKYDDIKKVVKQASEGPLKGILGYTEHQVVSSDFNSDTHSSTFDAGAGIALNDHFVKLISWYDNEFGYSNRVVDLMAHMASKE

`SCCNCCc1c[nH]c2ccccc12` [AG1, 2-[2-(1H-indol-3-yl)ethylamino]ethanethiol] was tested, and the “effect on dimerization or activity” value [1] was “no effect”, the protein leakage (human erythrocytes [2]) was “decreased” and the ROS level [3] was “decreased”. The ROS levels (human erythrocytes [4]) was “reduced”, the viability [5] was “improved” and the G6PD activity [6] was “increased”. The reduction of hemolysis at 1 µM (human erythrocytes [7]) was 12% and the “increase of G6PD activity in lysate” value [8] was 50%.
